Data as given in patent US6759403B2, “Metalloporphyrins and their uses as radiosensitizers for radiation therapy” (Brookhaven Science Associates, LLC, priority 2001, dated 2004).

Experiments:
EMT-6 mammary carcinomas = experiment: Boron biodistribution in mice with EMT-6 tumors of the dorsal thorax (Example 2); assay type: in vivo, BALB/c mice; settings: 186 μg CuTCPBr/g body weight total, 6 ip injections over 2 days; 4 days after last injection
Description: Five BALB/c mice bearing subcutaneously implanted EMT-6 mammary carcinomas on the dorsal thorax were given a total dose of 186 μg CuTCPBr/g body weight in 6 intraperitoneal (ip) injections over a period of 2 days. Four days after the last injection mice were euthanized and the average boron concentrations (μg/g wet tissue) were measured for different types of tissue.

[1] = test system: subcutaneous 9L gliosarcomas; experiment: Boron biodistribution after intravenous infusion in rat 9L gliosarcoma model (Examples 6 and 7); assay type: in vivo, Fischer 344 rats
Description: This example used the experimental rat 9L gliosarcoma model and the protocol used to administer porphyrins by intravenous infusion that were reported in J. NeuroOncol, 52, 111-117, 2001. Six (6) male Fischer 344 rats bearing subcutaneous 9L gliosarcomas were infused intravenously with CuTCPBr at a total dose of 220 μg/gbw over 48 hours. Tumor and blood were sampled from each at zero, one, two and three days after the end of infusion and the boron concentrations measured. In this example, the biodistribution of CuTCPBr was compared to CuTCPH. A group of six (6) male Fischer 344 rats bearing subcutaneous 9L gliosarcomas were infused intravenously with CuTCPBr at a total dose of 220 μg/gbw over 48 hours. A second group of four (4) male Fischer 344 rats bearing subcutaneous 9L gliosarcomas were infused intravenously with CuTCPH at a total dose of 195 μg/gbw. over 48 hours. Boron concentrations in tissues from both groups of rats were taken three days after the end of infusion. The results for the CuTCPBr group of rats are listed in column 2 of Table 6 and the results for the CuTCPH group of rats are listed in column 4 of Table 6. To account for the difference in porphyrin dose (195 μg/gbw for CuTCPH versus 220 μg/gbw for CuTCPBr) and the difference in % boron in each porphyrin (31.8% for CuTCPH versus 21.7 for CuTCPBr), the boron concentrations in tissues from rats given CuTCPBr were normalized so that they would be equivalent to the boron concentrations of rats given CuTCPH. This was done by multiplying the boron concentrations in the CuTCPBr group of rats by the CuTCPBr to CuTCPH boron dose ratio of 1.3. The normalized boron concentrations for the CuTCPBr group of rats are listed in column 3 of Table 6.

EMT-6 mammary tumors = experiment: Radiosensitizer study: tumor control with 100 kVp x-irradiation (Example 8); assay type: in vivo, BALB/c mice; settings: for % tumor control: 89 days observation
Text: In this example, female BALB/c mice (Taconic Farms, Germantown, N.Y.) (20-25 g) were used in radiotherapy studies to compare tumor control effects in mice bearing EMT-6 mammary tumors. The EMT-6 leg tumors were formed by mincing freshly removed tumor tissue from mice into fragments no larger than 0.5 mm. The fragments were mixed in a saline solution and implanted subcutaneously (sc) in the legs of mice using an 18-gauge trocar. Tumor fragments were used because in this particular location tumors initiated by cell suspensions tend to spread in a thin subcutaneous layer and invade the subjacent muscle. Using tumor fragments, the tumors are palpable, but thinner on the leg than on the dorsal thorax. In late stage, fragment-initiated tumors can invade muscle tissue but not as frequently as do suspension-initiated tumors.
At approximately seven days after tumor implantation, the mice were stratified by tumor volume into six (6) matched experimental groups, which included five groups of twelve (12) mice each and a control group of thirty-three (33). Two groups were treated with ≈400 μg/g body weight CuTCPBr and given two doses of 100 kVp x-irradiation x-rays, two groups were treated with only two doses of 100 kVp x-irradiation, one group received CuTCPBr and were euthanized the day of irradiation. The function of the group which was immediately euthanized was to determine the boron concentration in tissues at the time of irradiation. It was not a control group upon which the effectiveness of treatment was compared. The control group of thirty-three mice was not treated at all.
In all treated groups, single-exposure irradiations were used. For the irradiation procedures, mice were anesthetized with sodium pentobarbital (≈60 μg/gbw i.p.). Each mouse was anesthetized and positioned behind a 1-cm thick lead shield with the tumor-bearing leg extended across a 2-cm aperture in the lead shield in a manner similar to that used in thermal beam irradiation. […]
Tumor volumes ranged from approximately 20-170 mm^3 in each of the five groups of treated mice. Tumor dimensions were measured 2-3 times per week and mice were euthanized either when calculated tumor volumes (x^2y/2, where x is the shorter surface dimension) exceeded 500 mm^3 or when skin ulceration was observed. Mice were weighed when the tumors were measured, except during the first week, when they were weighed daily. […]
Mice were euthanized at various time points due to tumor overgrowth. The effectiveness of the treatments was measured by the “% tumor control.” The % tumor control is defined as the number of mice whose tumors were “cured” divided by the total number of mice in a particular dose group. […]

[2] = 220 μg/gbw CuTCPBr (47.7 μg B/gbw) iv over 48 hours, 3 days after end of infusion
[3] = CuTCPBr 220 μg/gbw iv infusion over 48 hours, 0 days after end of infusion
[4] = CuTCPBr 220 μg/gbw iv infusion over 48 hours, 1 day after end of infusion
[5] = CuTCPBr 220 μg/gbw iv infusion over 48 hours, 2 days after end of infusion
[6] = CuTCPBr 220 μg/gbw iv infusion over 48 hours, 3 days after end of infusion
[7] = normalized to boron dose 61.8 μg B/gbw (x1.3), 3 days after end of infusion

copper octabromotetracarboranylphenylporphyrin [CuTCPBr]
Boron Concentration, Blood (EMT-6 mammary carcinomas): 0.6 ± 0.2 μg B/g wet tissue | Boron Concentration, Brain (EMT-6 mammary carcinomas): 0.5 ± 0.1 μg B/g wet tissue | Boron Concentration, Liver (EMT-6 mammary carcinomas): 272 ± 93 μg B/g wet tissue | Boron Concentration, Tumor (EMT-6 mammary carcinomas): 84 ± 15 μg B/g wet tissue | Boron Concentration, Brain [1, 2]: 0.4 (0) μg/g | Boron Concentration, Kidney [1, 2]: 11 (1) μg/g | Boron Concentration, Lacrimal Gland [1, 2]: 28 (13) μg/g | Boron Concentration, Liver [1, 2]: 477 (25) μg/g | Boron Concentration, Lung [1, 2]: 123 (42) μg/g | Boron Concentration, Lymph Nodes [1, 2]: 202 (32) μg/g | Boron Concentration, Parotid Gland [1, 2]: 85 (36) μg/g | Boron Concentration, Spinal Cord [1, 2]: 0.9 (0.4) μg/g | Boron Concentration, Spleen [1, 2]: 632 (41) μg/g | Boron Concentration, Submaxillary Gland [1, 2]: 68 (8) μg/g | Boron Concentration, Tongue [1, 2]: 30 (3) μg/g | Boron concentration, Ears [1, 2]: 8.4 (1.2) μg/g | Boron Concentration, Tumor ([1]; CuTCPBr 220 μg/gbw (47.7 μg B/gbw) iv infusion over 48 hours, 3 days after end of infusion): 52 (19) μg/g | Boron Concentration, Blood [1, 3]: 360 (30) μg/g | Boron Concentration, Tumor [1, 3]: 67 (26) μg/g | Tumor to Blood Ratio (boron) [1, 3]: 0.19 | Boron Concentration, Blood [1, 4]: 150 (20) μg/g | Boron Concentration, Tumor [1, 4]: 64 (17) μg/g | Tumor to Blood Ratio (boron) [1, 4]: 0.43 | Boron Concentration, Blood [1, 5]: 23 (7) μg/g | Boron Concentration, Tumor [1, 5]: 75 (34) μg/g | Tumor to Blood Ratio (boron) [1, 5]: 3.3 | Boron Concentration, Blood [1, 6]: 1.4 (0.1) μg/g | Tumor to Blood Ratio (boron) [1, 6]: 38 | Boron Concentration, Brain, CuTCPBr Normalized [1, 7]: 0.5 µg/g | Boron Concentration, Ears, CuTCPBr Normalized [1, 7]: 11 µg/g | Boron Concentration, Kidney, CuTCPBr Normalized [1, 7]: 14 µg/g | Boron Concentration, Lacrimal Gland, CuTCPBr Normalized [1, 7]: 37 µg/g | Boron Concentration, Liver, CuTCPBr Normalized [1, 7]: 623 µg/g | Boron Concentration, Lung, CuTCPBr Normalized [1, 7]: 161 µg/g | Boron Concentration, Lymph Nodes, CuTCPBr Normalized [1, 7]: 264 µg/g | Boron Concentration, Parotid Gland, CuTCPBr Normalized [1, 7]: 111 µg/g | Boron Concentration, Spinal Cord, CuTCPBr Normalized [1, 7]: 1.2 µg/g | Boron Concentration, Spleen, CuTCPBr Normalized [1, 7]: 825 µg/g | Boron Concentration, Submaxillary Gland, CuTCPBr Normalized [1, 7]: 89 µg/g | Boron Concentration, Tongue, CuTCPBr Normalized [1, 7]: 39 µg/g | Boron Concentration, Tumor, CuTCPBr Normalized [1, 7]: 68 µg/g | Toxicity ([1]; rats, 220 μg/gbw CuTCPBr or 195 μg/gbw CuTCPH iv over 48 hours): does not appear to be a major problem | dose modification factor (EMT-6 mammary tumors; CuTCPBr in combination with x-irradiation): > 1.5 | radiosensitizing effect (EMT-6 mammary tumors; single dose x-irradiation in the presence of CuTCPBr): clear radiosensitizing effect | % tumor control (EMT-6 mammary tumors; ≈400 μg/g CuTCPBr plus single-dose 25 Gy 100 kVp x-rays, x-rays alone 25.0%): 41.7% | % tumor control (EMT-6 mammary tumors; ≈400 μg/g CuTCPBr plus single-dose 35 Gy 100 kVp x-rays, x-rays alone 33.3%): 66.7%
